Two molecules from patent EP0620225B1, “Cephalosporin derivatives” (Basilea Pharmaceutica AG, priority 1993, dated 1994) can be followed below.

Holding throughout (test): Antibacterial spectrum (MIC), agar dilution
Type in all cases: cell-based
Background: Agar dilution tests growth on a series of plates holding different concentrations.

For one experiment, the system named is S.agalactiae QK44. Conditions: Streptococcus agalactiae, read-out: MIC. As for the experimental part: (§1) In vitro activity was determined by minimum inhibitory concentration in a microorganism spectum by the agar dilution method in Mueller Hinton agar.
Another experiment concerns Acinetobacter sp.51-156. Conditions: SP.51156, read-out: MIC. As for the experimental part: as §1
A further experiment deals with C.freundii 43. As to conditions: Citrobacter freundii, read-out: MIC. As for the experimental part:
as §1

Another experiment has as its system P.vulgaris 1028. Conditions: Proteus vulgaris, read-out: MIC. As for the experimental part:
as §1

In a further experiment the test system is E.coli 25922. Conditions: Escherichia coli, read-out: MIC. As for the experimental part:
as §1

For another experiment, the system named is H.influenzae 1. Conditions: Haemophilus influenzae, read-out: MIC. As for the experimental part:
as §1

The next experiment relates to E.faecalis 6. Conditions: Enterococcus faecalis, read-out: MIC. As for the experimental part:
as §1

Another experiment concerns M.catarrhalis RA21. As to conditions: Moraxella catarrhalis, read-out: MIC. The method, then: as §1
A further experiment relates to L.monocytogenes BK23. Conditions: Listeria monocytogenes, read-out: MIC. The method, then:
as §1

For a further experiment, the system named is S.marcescens 69438. Conditions: Serratia marcescens, read-out: MIC. The method, then: as §1
A further experiment has as its system P.aeruginosa 27853. Conditions: Pseudomonas aeruginosa, read-out: MIC. As for the experimental part: as §1
A further experiment deals with S.viridans group 016. Conditions: Streptococcus viridans, read-out: MIC. As for the experimental part: as §1
The next experiment concerns S.aureus 6538. As to conditions: Staphylococcus aureus, read-out: MIC. The method, then: as §1
A further experiment has as its system S.pyogenes B15. Conditions: Streptococcus pyogenes, read-out: MIC. As for the experimental part: as §1
A further experiment has as its system E.cloacae 908R. Conditions: Enterobacter cloacae, read-out: MIC. As for the experimental part: as §1
The subject of another experiment is E.cloacae 908SSi. Conditions: Enterobacter cloacae, read-out: MIC. As for the experimental part:
as §1

A further experiment concerns P.mirabilis 2117. As to conditions: Proteus mirabilis, read-out: MIC. The method, then: as §1
The next experiment concerns C.freundii 902. As to conditions: Citrobacter freundii, read-out: MIC. As for the experimental part: as §1
The next experiment deals with M.morganii 6H-137. As to conditions: Morganella morganii, 6H137, read-out: MIC. The method, then:
as §1

The test system of a further experiment is S.pneumoniae Q19. As to conditions: Streptococcus pneumoniae, read-out: MIC. As for the experimental part:
as §1

A further experiment relates to X.maltophilia 1AC739. Conditions: Stenotrophomonas maltophilia, read-out: MIC. As for the experimental part: as §1
A further experiment relates to N.meningitidis 69480. As to conditions: Neisseria meningitidis, read-out: MIC. As for the experimental part:
as §1

The next experiment concerns S.aureus 734 MRSA. Conditions: Staphylococcus aureus, read-out: MIC. As for the experimental part:
as §1

In the next experiment the test system is K.pneumoniae 418. Conditions: Klebsiella pneumoniae, read-out: MIC. The method, then:
as §1

Values after ≈ are worked out from the molar mass of the structure shown.

Take `C#CCN1CC/C(=C\C2=C(C(=O)O)N3C(=O)[C@@H](NC(=O)/C(=N\O)c4csc(N)n4)[C@H]3SC2)C1=O` [O, [6R-[3(E),6α,7β(Z)]]-7-[[(2-Amino-4-thiazolyl)(hydroxyimino)acetyl]-amino]-8-oxo-3-[[2-oxo-1-(2-propynyl)-3-pyrrolidinylidene]methyl]-5-thia-1-azabicyclo [4.2.0]-oct-2-ene-2-carboxylic acid]: the MIC in the experiment on S.agalactiae QK44 is 0.25 µg/mL (≈ 0.497 µM); in the experiment on Acinetobacter sp.51-156, 16 µg/mL (≈ 31.8 µM); with C.freundii 43, 4 µg/mL (≈ 7.96 µM); in the experiment on P.vulgaris 1028 it was 8 µg/mL (≈ 15.9 µM); in the experiment on E.coli 25922, no more than 0.06 µg/mL; with H.influenzae 1, 0.25 µg/mL (≈ 0.497 µM). The MIC in the experiment on E.faecalis 6 was 2 µg/mL (≈ 3.98 µM); with M.catarrhalis RA21, 4 µg/mL (≈ 7.96 µM); in the experiment with L.monocytogenes BK23, 2 µg/mL (≈ 3.98 µM); in the experiment with S.marcescens 69438, 1 µg/mL (≈ 1.99 µM); with P.aeruginosa 27853 it was 8 µg/mL (≈ 15.9 µM); in the experiment on S.viridans group 016 it was 0.5 µg/mL (≈ 0.995 µM). In addition, the MIC was 1 µg/mL (≈ 1.99 µM) in the experiment with S.aureus 6538; no more than 0.06 µg/mL in the experiment with S.pyogenes B15; 16 µg/mL (≈ 31.8 µM) with E.cloacae 908R; 1 µg/mL (≈ 1.99 µM) in the experiment with E.cloacae 908SSi; no more than 0.06 µg/mL in the experiment with P.mirabilis 2117; 0.12 µg/mL (≈ 0.239 µM) with C.freundii 902. For the same molecule, the MIC in the experiment on M.morganii 6H-137 is no more than 0.06 µg/mL; with S.pneumoniae Q19 it was no more than 0.06 µg/mL; in the experiment on X.maltophilia 1AC739 it was greater than 32 µg/mL; in the experiment with N.meningitidis 69480, 0.25 µg/mL (≈ 0.497 µM); in the experiment with S.aureus 734 MRSA it was 4 µg/mL (≈ 7.96 µM); in the experiment on K.pneumoniae 418 it was 0.12 µg/mL (≈ 0.239 µM).

For the molecule `Nc1nc(/C(=N/O)C(=O)N[C@@H]2C(=O)N3C(C(=O)O)=C(/C=C4\CCN(c5cnccn5)C4=O)CS[C@H]23)cs1` [P], the MIC is 0.5 µg/mL (≈ 0.922 µM) in the experiment on S.agalactiae QK44; 32 µg/mL (≈ 59 µM) with Acinetobacter sp.51-156; 2 µg/mL (≈ 3.69 µM) with C.freundii 43; 4 µg/mL (≈ 7.37 µM) with P.vulgaris 1028; no more than 0.06 µg/mL in the experiment with E.coli 25922; 0.5 µg/mL (≈ 0.922 µM) in the experiment with H.influenzae 1. Moreover, the MIC is 0.5 µg/mL (≈ 0.922 µM) in the experiment on E.faecalis 6; 8 µg/mL (≈ 14.7 µM) with M.catarrhalis RA21; 4 µg/mL (≈ 7.37 µM) in the experiment with L.monocytogenes BK23; 4 µg/mL (≈ 7.37 µM) with S.marcescens 69438; 8 µg/mL (≈ 14.7 µM) with P.aeruginosa 27853; 1 µg/mL (≈ 1.84 µM) in the experiment on S.viridans group 016. Moreover, the MIC in the experiment on S.aureus 6538 is 0.5 µg/mL (≈ 0.922 µM); in the experiment on S.pyogenes B15, no more than 0.06 µg/mL; in the experiment with E.cloacae 908R, 8 µg/mL (≈ 14.7 µM); in the experiment with E.cloacae 908SSi it was 0.25 µg/mL (≈ 0.461 µM); in the experiment with P.mirabilis 2117, 0.12 µg/mL (≈ 0.221 µM); in the experiment with C.freundii 902, 0.12 µg/mL (≈ 0.221 µM). Further, the MIC was no more than 0.06 µg/mL with M.morganii 6H-137; 0.12 µg/mL (≈ 0.221 µM) with S.pneumoniae Q19; greater than 32 µg/mL in the experiment on X.maltophilia 1AC739; 0.5 µg/mL (≈ 0.922 µM) in the experiment with N.meningitidis 69480; 8 µg/mL (≈ 14.7 µM) in the experiment with S.aureus 734 MRSA; 0.25 µg/mL (≈ 0.461 µM) with K.pneumoniae 418.
